{
  "source": "patent US8241607B2",
  "about": "“Use of fructose-based compounds for the diagnosis of cancer” (priority 2005, dated 2012)",
  "type_in_all_cases": "cell-based",
  "key": {"GLUT-5 mRNA": {"test_system": "GLUT-5 mRNA", "assay": "Quantitative real-time RT-PCR of GLUT-5 mRNA in MCF-7 cells", "method": "FIG. 10 depicts GLUT-5 expression levels in accordance with an embodiment of the present invention. MCF-7 breast cancer cells were incubated in 2 mM glucose (Glu), 5.5 mM glucose (Glu) or 5.5 mM fructose (Fru) for 4 or 24 hours, after which GLUT-5 expression was quantified using real-time RT-PCR, normalized to GAPDH levels, and expressed as fold-increase compared to GLUT-5 levels detected in MCF-7 cells cultured in 2 mM glucose for a similar time period.\nCellular fructose uptake is facilitated by a member of solute carrier family 2, called glucose transporter type 5 (GLUT-5). Following incubation of MCF-7 breast cancer cells in 2 mM, 5.5 mM glucose or 5.5 mM fructose for […], total RNA was harvested, and analyzed by quantitative real-time RT-PCR analysis using GLUT-5 specific primers to quantify GLUT-5 mRNA expression. GLUT-5 expression was normalized to GAPGH mRNA expression, and expressed as fold-change in comparison to control breast cancer cells incubated in 2 mM glucose for 4, and 24 hours."}, "MAPK pathway [1]": {"test_system": "MAPK pathway", "assay": "Western blot of MAPK pathway in breast cancer cells", "method": "FIG. 11 depicts increased breast cancer phosphorylated-MEK, phosphorylated Rsk, and phosphorylated CREB in accordance with an embodiment of the present invention. MCF-7 breast cancer cells were incubated in 2 mM glucose, 5 mM glucose or 5 mM fructose for 24 hours, after which Western blot analysis on total protein lysates was employed to examine components of the MAP kinase pathway. […] Total MEK, Rsk, and CREB levels, and β-actin served as loading controls.\nAlthough several signal transduction pathways are likely involved in the fructose-mediated enhanced breast cancer growth and while not wishing to be bound by any particular theory, the inventors believe that the MAP-kinase pathway is involved. The inventors have used Western blot analysis to examine the MAPK pathway in breast cancer cells incubated in 2 mM glucose, 5.5 mM glucose, and 5.5 mM fructose for 48 hours. […] Activation of MEK, and subsequently ERK results in phosphorylation of p90^Rsk, which leads to transcriptional activation of CREB and AP1, which bind to cAMP or AP1 response elements respectively, activating gene transcription and promoting cellular growth."}, "transketolase (TKK)": {"test_system": "transketolase (TKK)", "assay": "Transketolase activity in PANC-1 lysates (NADH oxidation)", "details": "5.5 mM fructose, 72 h", "method": "FIG. 34 depicts quantitation of transketolase activity in pancreatic cancer PANC-1 cells following incubation in 2 mM glucose, 5.5 mM glucose, and 5.5 mM fructose for 24 h, 48 h, and 72 h respectively, in accordance with an embodiment of the present invention.\nThe inventors believe that fructose-treatment of pancreatic cancer cells led to an increase in TKK-driven nucleic acid synthesis, and thus fructose-treatment would result in an increase in either PANC-1 TKK expression and/or activity in comparison to equivalent glucose concentrations. Western blot analysis on protein lysates derived from fructose-, and glucose-treated PANC-1 cells were performed (5.5 mM fructose, and glucose for 24, and 48 h as per previous protocol) using a specific TKK antibody, and compared TKK expression in the fructose-, and glucose-treated PANC-1 cells. As depicted in FIG. 33, TKK expression at 24 h, and 48 h in protein lysates derived from 5.5 mM glucose-treated PANC-1 cells was increased in comparison to expression in 2 mM glucose-treated cells. […] After gentle mixing the absorbance of the mixture was measured at 10 min intervals for 2 h at 340 nm. Transketolase activity was then derived from the difference in absorbance at 10, and 80 minutes, and expressed as nmol/min/million cells. […] Pancreatic cancer proliferation rates were then measured using the MTS assay (FIG. 35)."}, "MAPK pathway [2]": {"test_system": "MAPK pathway", "assay": "Western blot of MAPK pathway in PANC-1 cells", "details": "5.5 mM sugar, 48 h", "method": "FIG. 23 depicts Western blot analysis examining MAPK pathway expression in accordance with an embodiment of the present invention. PANC-1 pancreatic cancer cells were incubated in 2 mM glucose, 5.5 mM glucose or 5.5 mM fructose for 48 hours, after which Western blot analysis on total protein lysates was employed to examine phosphorylated MEK (pMEK), pRSK, and pCREB, and corresponding total MEK, RSK, and CREB levels.\nSeveral signal transduction pathways may be involved in fructose-mediated pancreatic cancer growth but given the importance of the MAPK pathway in proliferation, the inventors believed that MAPK was involved. In the MAPK pathway, MEK mediated phosphorylation of the p44/42 MAP kinase (ERK) is the first step in this cascade, which results in phosphorylation of p90^Rsk, leading to transcriptional activation of CREB, and AP1, activating gene transcription and promoting cellular growth. The inventors employed Western blot analysis to examine MAPK pathway expression in pancreatic cancer cells incubated in 2 mM glucose, 5.5 mM glucose, and 5.5 mM fructose for 48 hours. Levels of the active phosphorylated proteins, pERK, pRSK, and pMEK were normalized to total ERK, RSK, and MEK levels respectively, and compared between the fructose-, and glucose-treated PANC-1 cells."}, "[3]": {"details": "breast cancer cells, 5.5 mM fructose, 24 h, vs 5.5 and 2 mM glucose"}},
  "data": [
    {"molecule": "O=C(CO)[C@@H](O)[C@H](O)[C@H](O)CO", "note": "[fructose]", "values": [
      {"measurement": "increase in GLUT-5 expression", "setting": "GLUT-5 mRNA; 5.5 mM fructose compared to 5.5 mM glucose, 24 hour incubation", "result": "two-fold increase"},
      {"measurement": "change in GLUT-5 mRNA expression", "setting": "GLUT-5 mRNA; 5.5 mM glucose or 5 mM fructose, 4 hours, vs 2 mM glucose", "result": "no significant change"},
      {"measurement": "phospho-MEK (pMEK) expression", "setting": "MAPK pathway [1]; MCF-7 and MDA-MB231, 5.5 mM fructose vs 5.5 and 2 mM glucose", "result": "increased expression"},
      {"measurement": "phospho-CREB (pCREB)", "setting": "MAPK pathway [1]; [3]", "result": "increased"},
      {"measurement": "phospho-Rsk (pRsk)", "setting": "MAPK pathway [1]; [3]", "result": "increased"},
      {"measurement": "TKK activity in comparison to 5.5 mM glucose-treated cells", "setting": "transketolase (TKK)", "result": 1.7, "unit": "fold higher"},
      {"measurement": "pERK expression", "setting": "MAPK pathway [2]", "result": "highest"},
      {"measurement": "pMEK expression", "setting": "MAPK pathway [2]", "result": "highest"},
      {"measurement": "pRSK expression", "setting": "MAPK pathway [2]", "result": "highest"}
    ]}
  ]
}
